This note sets out measurements from the METLIN SMRT retention time set (Domingo-Almenara et al. 2019).

The nature of this series: gradient 5% acetonitrile 3 min, to 50% in 2 min, to 85% in 15 min, held 3 min, 100 µL/min. To be noted: column: Zorbax Extend-C18 2.1 x 50 mm; eluents: water / acetonitrile, 0.1% formic acid. In outline:
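Data were gathered over 3 months by HPLC coupled to a quadrupole time-of-flight mass spectrometer, operated in positive and negative ionization mode. Mixtures of ~100 pure standards ran on a Zorbax Extend-C18 column (2.1 × 50 mm, 1.8 μm) at 100 μL/min, with water and acetonitrile each containing 0.1% formic acid and dead and dwell volumes of 40 μL and 900 μL. Retention time was read from adduct peaks picked by computer and checked manually.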
For `Cc1[nH]cnc1CN1CCc2c(c3ccccc3n2C)C1=O`, the RP-LC retention time came out at 652 s.

`CCc1nnc(-c2ccc(=O)n(CC(=O)NCc3ccc(F)c(Cl)c3)c2)o1` displayed an RP-LC retention time of 713 s.

`O=c1c2sccc2n(Cc2nc(-c3ccc(Cl)c(F)c3)no2)c(=O)n1Cc1ccccc1`: the RP-LC retention time was found to be 1210 s.

As for `Cc1cc(-c2nnc(-c3ccc(F)cc3)o2)c(C)n1CC(=O)NCc1ccccn1`, the RP-LC retention time was found to be 673 s.

In turn, `CCC(C)C(NC(=O)c1ccccc1)C(=O)Nc1nc2ccccc2[nH]1` (configuration not stated) gave an RP-LC retention time of 718 s.

`CCn1nccc1C(=O)N1C[C@@H]2CCCN3CCC[C@@H]([C@H]23)[C@H]1CCCC(=O)N1CCOCC1` came in with an RP-LC retention time of 572 s.

As to `COc1cccc(CNC(=O)[C@@H]2[C@H](c3cc(OC)c(OC)c(OC)c3)c3cc4c(cc3[C@H](O)[C@H]2CO)OCO4)c1OC`, the RP-LC retention time came out at 702 s.

Take `CCc1ccc(-c2ccc(=O)n(CCc3nc(-c4cccc(C)c4)no3)n2)cc1`: the RP-LC retention time was found to be 1180 s.

The molecule `CC1(C)O[C@@H]2C[C@H]3[C@@H]4CCC5=CC(=O)C=C[C@]5(C)[C@H]4[C@@H](O)C[C@]3(C)[C@]2(C(=O)CO)O1` displayed an RP-LC retention time of 814 s.

The molecule `CC1CCc2nc(NC(=O)CCS(=O)(=O)Cc3ccccc3)sc2C1` (configuration not stated) showed an RP-LC retention time of 853 s.

`CCCCNC(=O)C1Cc2cc(S(=O)(=O)N3CCCCC3)ccc2N1C(=O)CC` (configuration not stated) gave an RP-LC retention time of 885 s.

In turn, `Cc1ccnc(N2CCCC(C(=O)Nc3cc(Cl)ccc3C)C2)n1` (configuration not stated) had an RP-LC retention time of 846 s.

In turn, `CCOCCCNC(=O)C1CCN(c2nc3cccnc3s2)CC1` showed an RP-LC retention time of 654 s.

For the molecule `CC1=C(c2ccccc2)C=NNCC1=O`, the RP-LC retention time turned out to be 733 s.

Consider `Cc1ccc(Nc2nc3ccncc3n(C(C)C)c2=O)cc1F`, for which the RP-LC retention time is 722 s.

With `NS(=O)(=O)c1ccc(CCNC(=O)c2ccc(=O)[nH]n2)cc1`, the RP-LC retention time is 542 s.

The molecule `CCc1ccccc1NC(=O)c1c(O)c2cccnc2n(-c2cccc(F)c2)c1=O` displayed an RP-LC retention time of 1320 s.

On to `CC(=O)N(Cc1nn(C)c2c1CN(S(=O)(=O)c1cccc(Cl)c1)CC2)c1ccccc1`, for which the RP-LC retention time was 783 s.

Regarding `Cn1cc(CCNC(=O)Cc2ccc(Cl)cc2)c2cccnc21`, the RP-LC retention time stood at 696 s.

`O=C1COc2cc(Cl)ccc2N1Cc1nc(-c2ccc3c(c2)OCO3)no1` returned an RP-LC retention time of 1070 s.

As for `CCOC(=O)C1CCN(c2nnc(-c3nc(C4CC4)no3)c3ccccc23)CC1`, the RP-LC retention time worked out at 953 s.

As for `COc1ccc(NC(=O)c2cccn2Cc2noc(C)n2)cc1`, the RP-LC retention time was found to be 776 s.

On to `CC(=O)N1CCN(c2nccc(-n3nc(C)cc3C)n2)CC1`, for which the RP-LC retention time came out at 716 s.

On to `CCS(=O)(=O)c1nc2ccc(NS(=O)(=O)c3cc(Cl)ccc3OC)cc2s1`, for which the RP-LC retention time was 914 s.

Consider `Cc1c(Cc2ccc3c(c2)OCO3)sc(NC(=O)c2ccc([N+](=O)[O-])s2)c1C#N`, for which the RP-LC retention time came to 1070 s.

Regarding `CC(C)NC(=O)c1ccc(-c2nc3cc(NS(=O)(=O)Cc4ccccc4F)ccc3n2C)cc1`, the RP-LC retention time turned out to be 677 s.

`CCCCN(C)C(=O)C1CCC(=O)N(c2cc(OC)c(OC)c(OC)c2)C1c1ccc(OC)cc1` (configuration not stated) registered an RP-LC retention time of 768 s.

Take `CCOC(=O)C(CC)n1nc2ccc(S(=O)(=O)N3CCC(C)CC3)cn2c1=O` (configuration not stated): the RP-LC retention time was 990 s.

Regarding `O=C(Nc1cccc(Cl)c1Cl)C1(c2ccc(F)cc2)CC1`, the RP-LC retention time turned out to be 1280 s.

Turning to `Cn1cc(-c2ccncc2)cc1C(=O)N1CCN(c2cccc(Cl)c2)CC1`, the RP-LC retention time was 679 s.

In turn, `COC(=O)c1cccc(C(=O)Nc2ccccc2C)n1` had an RP-LC retention time of 869 s.

The molecule `COCCCNC(=O)c1nnc(-c2ccc(S(=O)(=O)N3CCC(C)CC3)cc2)o1` registered an RP-LC retention time of 762 s.

Turning to `Cc1ccc(C)c(NC(=O)C2CC(=O)N(c3ccc4c(c3)CCN4C(=O)C3CC3)C2)c1` (configuration not stated), the RP-LC retention time was determined as 768 s.

With `COc1cccc(CNC(=O)Cn2ncc3c(N4CCN(c5ccccn5)CC4)ncnc32)c1`, the RP-LC retention time came to 598 s.

For `CN1CCc2nnc(C3CCN(C(=O)Nc4cc(Cl)cc(Cl)c4)C3)n2CC1` (configuration not stated), the RP-LC retention time turned out to be 623 s.

With `CC(C)(C)NC(=O)N1CCC(CNC(=O)C2CCN(S(C)(=O)=O)CC2)CC1`, the RP-LC retention time came out at 599 s.

`Cc1cc(C)cc(NS(=O)(=O)c2cc(-c3[nH]ncc3C(=O)N3CCCC3)oc2C)c1` displayed an RP-LC retention time of 746 s.

The molecule `CCS(=O)(=O)N1CC(=O)N(c2ccc(C)c(Cl)c2)C(C)(C(=O)NC2CCCCCC2)C1` (configuration not stated) displayed an RP-LC retention time of 1010 s.

On to `Cc1cc(C)n2nc(SCC(=O)NC3CCCCC3)nc2n1`, for which the RP-LC retention time was determined as 693 s.

The molecule `Cc1ccc2c(=O)c3c([nH]c2c1C)CCN(CC(=O)Nc1cccc(Cl)c1)C3` returned an RP-LC retention time of 640 s.

Molecule `Cc1ccc(C)c(C(=O)N2CCCC(COc3ccc(C(=O)NC4CC4)cc3)C2)c1` (configuration not stated) had an RP-LC retention time of 849 s.

Turning to `O=C(Nc1ccccc1)c1cn(CC2CCCO2)cc2c(=O)n(-c3ccccc3)nc1-2` (configuration not stated), the RP-LC retention time came to 993 s.

`c1ccc(-c2nc3cc(-c4noc(-c5ccncc5)n4)ccc3o2)cc1` yielded an RP-LC retention time of 1290 s.

On to `O=C(c1ccccc1Cl)N1CCN(c2cnn3c(C4CC4)nnc3c2)CC1`, for which the RP-LC retention time came to 590 s.

Molecule `Cc1sc2cc(C(=O)NC3CC3)[nH]c2c1CN1CCCCC1` displayed an RP-LC retention time of 596 s.

In the case of `CC(=O)N1CCc2ccccc2C1C(=O)NCc1cc(F)cc(F)c1` (configuration not stated), the RP-LC retention time was determined as 764 s.

As to `Cc1ccc(-c2ccc3nn(Cc4nc(-c5cccc(C(F)(F)F)c5)no4)c(=O)n3n2)cc1`, the RP-LC retention time stood at 1090 s.

As to `O=c1c2nnc3ccnn3c2ccn1CCc1c[nH]c2ccccc12`, the RP-LC retention time came to 700 s.

In turn, `COc1cc([C@@H]2c3cc4c(cc3[C@H](O)[C@@H](CO)[C@@H]2C(=O)N2CCc3ccccc32)OCO4)cc(OC)c1OC` showed an RP-LC retention time of 771 s.

As for `CCN(CC)c1nc2cc(C(=O)OC)ccc2c(=O)n1-c1ccc2c(c1)OCO2`, the RP-LC retention time stood at 1080 s.

Molecule `CN1C(=O)c2cc(C(=O)NC3CCCC3)nn2CC1(C)C(=O)NCc1ccc(F)cc1` (configuration not stated) showed an RP-LC retention time of 719 s.

Take `COCCn1cc2c3c(cccc31)CN(C(=O)c1ccc(Cl)cc1)CC2`: the RP-LC retention time was 1000 s.

`CCCOC(=O)C1=C(C)NC2=C(C(=O)C(C(=O)OC)C(C)C2)C1c1cccc(OC)c1` (configuration not stated) returned an RP-LC retention time of 934 s.

In turn, `CC1=C(C(=O)Nc2cc(Cl)ccc2C(=O)NC(C)c2ccccc2)SCCO1` (configuration not stated) showed an RP-LC retention time of 1070 s.

As for `CCN(CC)C(=O)Cn1nc2cc(C)nc(-c3cccc(Cl)c3)n2c1=O`, the RP-LC retention time turned out to be 790 s.

`O=C(NCCc1cccs1)c1ccc2ccnc(N3CCN(c4ccc(Cl)cc4)CC3)c2c1`: the RP-LC retention time turned out to be 931 s.

`COC[C@@H]1CN(C(=O)c2ccc(C#N)cc2)C[C@H]1C(N)=O` registered an RP-LC retention time of 571 s.

For `CN1CCN(Cc2nn(C)c3c2CN(S(=O)(=O)c2ccccc2Cl)CC3)CC1`, the RP-LC retention time was determined as 615 s.

The molecule `CSc1cccc(NC(=O)CC2COc3ccccc3NC2=O)c1` (configuration not stated) showed an RP-LC retention time of 742 s.

Consider `Cc1ccc(C)c(NC(=O)N2CCN(CCn3c(-c4ccncc4)nc4cccnc43)CC2)c1`, for which the RP-LC retention time was found to be 608 s.

The molecule `CC(NC(=O)C1CCN(c2ncnc3c2oc2ccccc23)CC1)c1ccccc1` (configuration not stated) displayed an RP-LC retention time of 735 s.

Regarding `Cc1nc2cc(-c3noc(-c4sc(C)nc4C)n3)ccc2o1`, the RP-LC retention time was 951 s.

For the molecule `Cc1noc([C@@H]2CN(CCCc3ccccc3)C[C@H]2CO)n1`, the RP-LC retention time was determined as 612 s.

In the case of `O=c1c2scc(-c3cccc(F)c3)c2ncn1Cc1cc(=O)n2ccccc2n1`, the RP-LC retention time was 809 s.

For `COc1ccc2nc3oc(C(=O)NCCN4CCCCC4C)cc3cc2c1` (configuration not stated), the RP-LC retention time stood at 633 s.

As to `COc1ccccc1NC(=O)N1C[C@@H](F)C[C@H]1C(=O)N1CCCCC1`, the RP-LC retention time came out at 677 s.

In the case of `CN(CC(=O)N1CCN(c2ccccn2)CC1)c1nnc(N2CCCC2=O)s1`, the RP-LC retention time was found to be 550 s.

For the molecule `O=C(NCCc1csc(C2CCCN(C(=O)C3CCC3)C2)n1)C1CC1` (configuration not stated), the RP-LC retention time turned out to be 691 s.

As for `Cc1nc(C2CCCN2Cc2ccccc2C)n[nH]1` (configuration not stated), the RP-LC retention time worked out at 546 s.

The molecule `Cc1ccc2nc(CN3CCN(C(=O)Nc4ccccc4C)CC3)oc2c1` returned an RP-LC retention time of 679 s.

In turn, `O=C(Cc1csc2nc(-c3ccccc3)cn12)Nc1ccc(F)cc1` gave an RP-LC retention time of 774 s.

On to `Cn1nc(C(=O)N2CCCC(C(=O)Nc3ccccc3)C2)c2c1CCN(C(=O)c1cccc(F)c1)C2` (configuration not stated), for which the RP-LC retention time was 756 s.

As to `COc1ccc(C2C(C(=O)NCc3ccccn3)c3cc(OC)c(OC)cc3C(=O)N2C)cc1` (configuration not stated), the RP-LC retention time worked out at 609 s.

`O=C(Nc1ccc(-c2nc3ccccc3[nH]2)cc1)c1cccs1` yielded an RP-LC retention time of 579 s.

`CC(C)(C)NC[C@@H](O)COc1cccc2c1CCCC2=O` registered an RP-LC retention time of 689 s.

The molecule `O=C(CSc1ccc(N2CCCC(C(=O)NC3CC3)C2)nn1)Nc1cc(F)cc(F)c1` (configuration not stated) registered an RP-LC retention time of 680 s.

Molecule `Oc1cccc(-c2nc3cnc(Br)cn3c2Nc2ccc3c(c2)OCO3)c1` gave an RP-LC retention time of 786 s.
